Columns and labels:
Mutant 1 plants = assay: Cross-resistance testing (glasshouse dose response), Mutant 1; format: in vivo, Zea mays; conditions: pre-emergence spray, assessed after four weeks growth
Excerpt: (§1) The seeds used in this screen were populations of mixed tolerant and sensitive seed, segregating 1:1, derived from each of the heterogygous, tolerant mutants crossed with homozygous, sensitive UE95. All of the tolerant progeny are heterozygous for tolerance. Each of the mutants identified above were used except mutant 4. The controls were seed of self-pollinated UE95 which was pollinated in the same year as the tolerant lines.
(§2) One litre of compost was placed in each seed tray of dimensions 19cm x 11cm x 5cm deep and firmed down flat. Two furrows 1 cm deep were drawn in the surface of the compost in each tray and six seeds were sown in each furrow (total twelve seeds per tray). Some trays were sown with 24 seeds, in which case three furrows were made and 8 seeds sown per furrow.
(§3) In each test each tray contained either the seed of one mutant or of the UE95 control for each herbicide application rate and for the untreated control.
(§4) Five different types of ALS-inhibitor herbicides were tested on the mutants plus imazethapyr (PURSUIT) as a comparison. Four rates of each were applied; approximately 0.1x, 0.5x, 1x and 4x the estimated field rates for each herbicide. The rates are the same for mutant 3 to 10 but higher rates for chlorimuron (CLASSIC) and lower rates for chlorsulfuron (GLEAN) were applied to mutants 1 and 2.
(§5) The rates of application used in the screening tests were as follows: chlorimuron (CLASSIC) 4,20,40,160 g/Ha (mutants 1 and 2); and, 8,40,80,320 g/Ha (mutants 3 to 10); chlorsulfuron (GLEAN) 5,25,50,200 g/Ha (mutants 1 and 2); and, 1,5,10,40 g/Ha (mutants 3 to 10); imazaquin (SCEPTER) 30,150,300,1200 g/Ha; triazolopyrimidine 5,25,50,200 g/Ha; phenoxypyrimidine 10,50,100,400 g/Ha; and, imazethapyr (PURSUIT) 30,150,300,1200 g/Ha The triazolopyrimidine and phenoxypyrimidine were formulated in an adjuvant wetting agent known as JF5969 and diluted with water to make a final concentration of 10% JF5969. The remaining compounds were diluted with water only.
(§6) The spray jet and parameters were as decribed above under "SCREENING". After spraying, the seeds were covered with 0.5 litre of compost and firmed down flat (2.5cm covering) and grown under the conditions described under "SCREENING" above.
(§7) Visual assessments were made of the plants after four weeks growth. Each plant was scored on a scale of zero to 5 and the height measured from soil surface to the tallest leaf tip. The scoring scale was as follows: 0 - 0 to 10% damage (little or no herbicidal effect) 1 - 11 to 25% damage 2 - 26 to 50% damage 3 - 51 to […] 4 - 81 to 95% damage 5 - 96 to 100% damage (complete death of the plant) In carrying out these assessments, plants which were obviously of the sensitive phenotype were ignored (approximately 50% of the plants). […]

[1] = molecular target: ALS enzyme extracted from Mutant 6 (heterozygous); assay: ALS enzyme assay, heterozygous Mutant 6; format: biochemical, Zea mays; conditions: for IC50: ALS of heterozygous Mutant 6, read-out: ID50% (the source's name); for resistance group, Enzyme Assay: Mutant 6, groups Strong, Intermediate, Weak, Zero; for Fold Increase: fold increase in resistance vs wild type, heterozygous Mutant 6, 30 min
Description: (§8) Seeds of generation M₁BC₁ M₁BC₂ of the nine mutants were sprayed pre-emergence with the herbicide imazethapyr (PURSUIT) (Trade Mark) at a rate of 250 g/ha and grown in a growth chamber (16 hour day, 27°C; 8 hour night, 17°C). Plants were harvested after 11 days.
(§9) Four grams of leaf material were harvested from just above the first leaf axis and ground in a mortar and pestle in 20ml of a solution containing 40mM Tricine (Trade Mark), 10mM EDTA, 5mM pyruvate, 80 »M flavin adenine dinucleotide (FAD), 1mM dithiothreitol (DTT), pH 8, plus 0.8g Polyclar AT. The homogenate was pressed through four layers of muslin and centrifuged at 30,000g for 20 minutes.
(§10) The supernatant was brought to 65% saturation with ammonium sulphate, left to precipitate for 30 minutes and then centrifuged at 30.000g for 20 minutes. The pellet was resuspended in 2.5ml of 40mM Tricine, 10mM EDTA, 5mM pyruvate, 80»M FAD, 25% (v/v) glycerol, 1mM DTT, pH 8, and desalted into 3.5ml of 40mM Tricine, 10mM EDTA, 25% (v/v) glycerol, 1mM DTT, pH 8.
(§11) One hundred microlitres of the enzyme extract was used for each assay. Final reagent concentrations were: 120mM Tricine, 50mM pyruvate, 10mM MgCl₂, […], 93»M thiamine pyrophosphate (TPP), pH 8, in the presence or absence of a herbicide of interest, in a volume of 750 »l. Incubations were carried out at 37°C for 30 minutes. Reactions were stopped with 250»l of 1.84M sulphuric acid, and decarboxylation of the acetolactate carried out at 37°C for 75 minutes, or at 60°C for 30 minutes. Assay blanks had sulphuric acid added prior to the enzyme extract. To the samples and blanks 650»l of α-naphthol in 2.73M NaOH/0.16%(w/v) creatine were added followed by incubation at 37°C for 30 minutes. After centrifugation at 30,000g the optical density of the supernatant was read at 540nm.
(§12) The assay procedure described was carried out on ALS enzyme extracted from each of the nine mutants for the following herbicides: imazethapyr (PURSUIT) imazapyr (ARSENAL) imazaquin (SCEPTER) chlorsulfuron (GLEAN) chlorimuron (CLASSIC) […] (HARMONY) The enzyme activity graphs are given as Figures 3 to 8. In addition, homozygous lines of mutants 1 and 2 which were selected from generation M₁BC₁S₂, were also tested against the same group of herbicides and against representatives of the triazolopyrimidines and phenoxypyrimidines. The chemical structures of these herbicides are shown in Figure 2 of the accompanying drawings.
(§13) From the enzyme assay data it is possible to derive, as a measure of the degree of inhibition the factor ID50% for each mutant and for each herbicide. This factor is indicative of the herbicide concentration which gives 50% inhibition of the ALS activity in comparison with the wild-type control. It is also possible to derive the fold increase in resistance.

Mutant 8 plants = assay: Cross-resistance testing (glasshouse dose response), Mutant 8; format: in vivo, Zea mays; conditions: pre-emergence spray, assessed after four weeks growth
Excerpt: as §1, §2, §3, §4, §5, §6, §7

[2] = molecular target: ALS enzyme extracted from Mutant 3 (heterozygous); assay: ALS enzyme assay, heterozygous Mutant 3; format: biochemical, Zea mays; conditions: for IC50: ALS of heterozygous Mutant 3, read-out: ID50% (the source's name); for resistance group, Enzyme Assay: Mutant 3, groups Strong, Intermediate, Weak, Zero; for Fold Increase: fold increase in resistance vs wild type, heterozygous Mutant 3, 30 min
Description: as §8, §9, §10, §11, §12, §13

Mutant 6 plants = assay: Cross-resistance testing (glasshouse dose response), Mutant 6; format: in vivo, Zea mays; conditions: pre-emergence spray, assessed after four weeks growth
Excerpt: as §1, §2, §3, §4, §5, §6, §7

[3] = molecular target: ALS enzyme extracted from Mutant 8 (heterozygous); assay: ALS enzyme assay, heterozygous Mutant 8; format: biochemical, Zea mays; conditions: for IC50: ALS of heterozygous Mutant 8, read-out: ID50% (the source's name); for resistance group, Enzyme Assay: Mutant 8, groups Strong, Intermediate, Weak, Zero; for Fold Increase: fold increase in resistance vs wild type, heterozygous Mutant 8, 30 min
Description: as §8, §9, §10, §11, §12, §13

Mutant 9 plants = assay: Cross-resistance testing (glasshouse dose response), Mutant 9; format: in vivo, Zea mays; conditions: pre-emergence spray, assessed after four weeks growth
Excerpt: as §1, §2, §3, §4, §5, §6, §7

| SMILES | resistance group, Dose Response (Mutant 1 plants) | IC50 [1] [µM] | resistance group, Enzyme Assay [1] | Fold Increase [1] | resistance group, Dose Response (Mutant 8 plants) | IC50 [2] [µM] | resistance group, Enzyme Assay [2] | Fold Increase [2] | resistance group, Dose Response (Mutant 6 plants) | IC50 [3] [µM] | resistance group, Enzyme Assay [3] | Fold Increase [3] | resistance group, Dose Response (Mutant 9 plants) |
| --- | --- | --- | --- | --- | --- | --- | --- | --- | --- | --- | --- | --- | --- |
| CC(C)C1(C)N=C(c2nc3ccccc3cc2C(=O)O)NC1=O (stereo not shown) [Imazaquin, imazaquin] | Strong | 1.5 | Weak | 2 | Strong | 1.5 | Weak | 2 | Weak | 150 | Strong | 250 | Strong |
| COc1cc(Cl)nc(NC(=O)NS(=O)(=O)c2ccccc2C(=O)O)n1 [Chlorimuron, chlorimuron] | Zero | 0.015 | Weak | 4 | Zero | 0.015 | Weak | 4 | Zero | 0.01 | Zero | 3 | Zero |
| COc1nc(C)nc(NC(=O)NS(=O)(=O)c2ccccc2Cl)n1 [Chlorsulfuron, chlorsulfuron] | Zero | 0.065 | Weak | 4 | Zero | 0.035 | Weak | 2 | Zero | 0.075 | Weak | 4 | Weak and Zero |
| CCc1cnc(C2=NC(=O)C(C)(C(C)C)N2)c(C(=O)O)c1 (stereo not shown) [Imazethapyr, 5-ethyl-2-(5-iso-propyl-5-methyl-4-oxo-2-imidazolin-2-yl) nicotinic acid] | Strong | 60 | Weak | 40 | Strong | 2.5 | Weak | 2 | Intermediate | > 1000 | Strong | >660 | Strong |
